The subject of this experiment is 883617-216-R-J1-PDC complex spheroid viability. The experiment is described as follows: Anticancer human tumor 883617-216-R-J1-PDC patient-derived bladder carcinoma cell line growth inhibition. The conditions noted are these: for viability, T/C: stronger effect = lower value. In a few lines:
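Multicellular complex spheroids of tumor cells with human endothelial cells (HUVEC) and mesenchymal stem cells; the LSD1 inhibitor iadademstat was combined with standard-of-care or investigational agents. Top concentration at or near clinical Cmax, half-log dilutions; final DMSO ≤0.25%.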

Where [1] appears, read: curve of first compound, second compound 0.1 µM.
[2] abbreviates: curve of first compound, second compound 0.316 µM.
Where [3] appears, read: curve of first compound, second compound 1 µM.
The mark [4] stands for this setting: curve of first compound, second compound 3.16 µM.
The mark [5] stands for this setting: curve of first compound, second compound 10 µM.
Where [6] appears, read: second compound 0.1 µM, first compound 0.00949 µM.
[7] abbreviates: second compound 0.1 µM, first compound 0.03 µM.
[8] abbreviates: second compound 0.1 µM, first compound 0.0949 µM.
[9] abbreviates: second compound 0.1 µM, first compound 0.3 µM.
The mark [10] stands for this setting: second compound 0.316 µM, first compound 0.00949 µM.
The mark [11] stands for this setting: second compound 0.316 µM, first compound 0.03 µM.
[12] abbreviates: second compound 0.316 µM, first compound 0.0949 µM.
[13] abbreviates: second compound 0.316 µM, first compound 0.3 µM.
Where [14] appears, read: second compound 1 µM, first compound 0.00949 µM.
Setting [15] is: second compound 1 µM, first compound 0.03 µM.
Setting [16] is: second compound 1 µM, first compound 0.0949 µM.
Setting [17] is: second compound 1 µM, first compound 0.3 µM.
Setting [18] is: second compound 3.16 µM, first compound 0.00949 µM.
The mark [19] stands for this setting: second compound 3.16 µM, first compound 0.03 µM.
Setting [20] is: second compound 3.16 µM, first compound 0.0949 µM.
Setting [21] is: second compound 3.16 µM, first compound 0.3 µM.
The mark [22] stands for this setting: second compound 10 µM, first compound 0.00949 µM.
Setting [23] is: second compound 10 µM, first compound 0.03 µM.
Where [24] appears, read: second compound 10 µM, first compound 0.0949 µM.
Setting [25] is: second compound 10 µM, first compound 0.3 µM.

Values joined by “and” are separate entries in the source; they are usually repeats but may differ in a detail not shown here. Equal entries are not always repeated.

The IC50 is the concentration that inhibits the measured activity by half. For orientation: viability, T/C means the ratio of treated to control.
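Further: exposure lasted seven days after three days of spheroid growth.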
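Wherever viability, T/C is given: 100% = DMSO vehicle control luminescence.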

`CCN(c1cc(-c2ccc(CN3CCOCC3)cc2)cc(C(=O)NCc2c(C)cc(C)[nH]c2=O)c1C)C1CCOCC1` + NC1CCC(NC2CC2c2ccccc2)CC1: the IC50 reads like this: under setting [1], more than 3 µM; under setting [2], more than 3 µM; under setting [3], more than 3 µM; under setting [4], more than 3 µM; under setting [5], more than 3 µM. Moreover, the viability, T/C under setting [6] is 96.4%; the viability, T/C under setting [7] is 85%; the viability, T/C under setting [8] was 86.9%; the viability, T/C under setting [9] was 84.7%; the viability, T/C (second compound 0.1 µM, first compound 0.949 µM) was 90.7%; the viability, T/C (second compound 0.1 µM, first compound 3 µM) is 80.8%. In addition, the viability, T/C is 95.8% under setting [10]; 98.8% under setting [11]; 93.1% under setting [12]; 87.6% under setting [13]; 89.1% (second compound 0.316 µM, first compound 0.949 µM); 86% (second compound 0.316 µM, first compound 3 µM). Moreover, the viability, T/C is, setting by setting: under setting [14], 90.2%; under setting [15], 89.5%; under setting [16], 83.8%; under setting [17], 88.4%; (second compound 1 µM, first compound 0.949 µM) 90%; (second compound 1 µM, first compound 3 µM) 86.3%. The viability, T/C is, setting by setting: under setting [18], 94.5%; under setting [19], 87.7%; under setting [20], 88.3%; under setting [21], 89.9%; (second compound 3.16 µM, first compound 0.949 µM) 87.9%; (second compound 3.16 µM, first compound 3 µM) 93.9%. Besides, the viability, T/C runs as follows: under setting [22], 97.8%; under setting [23], 91.7%; under setting [24], 90.8%; under setting [25], 96.2%; (second compound 10 µM, first compound 0.949 µM) 94.5%; (second compound 10 µM, first compound 3 µM) 92.8%.

For `O=C(c1cc(Cc2n[nH]c(=O)c3ccccc23)ccc1F)N1CCN(C(=O)C2CC2)CC1` + NC1CCC(NC2CC2c2ccccc2)CC1, the IC50 is, setting by setting: under setting [1], 2.73 µM; under setting [2], 8.24 µM; under setting [3], 3.58 µM; under setting [4], 3.79 µM; under setting [5], 8.94 µM. In addition, the viability, T/C by setting is: (second compound 0.1 µM, first compound 0.0316 µM) 100%; (second compound 0.1 µM, first compound 0.1 µM) 93%; (second compound 0.1 µM, first compound 0.316 µM) 93.3%; (second compound 0.1 µM, first compound 1 µM) 65.5%; (second compound 0.1 µM, first compound 3.16 µM) 49%; (second compound 0.1 µM, first compound 10 µM) 44.4%. Also, the viability, T/C is, setting by setting: (second compound 0.316 µM, first compound 0.0316 µM) 107%; (second compound 0.316 µM, first compound 0.1 µM) 102%; (second compound 0.316 µM, first compound 0.316 µM) 99.7%; (second compound 0.316 µM, first compound 1 µM) 76.2%; (second compound 0.316 µM, first compound 3.16 µM) 60.1%; (second compound 0.316 µM, first compound 10 µM) 47.5%. Moreover, the viability, T/C is 90.8% (second compound 1 µM, first compound 0.0316 µM); 89.9% (second compound 1 µM, first compound 0.1 µM); 90% (second compound 1 µM, first compound 0.316 µM); 76.1% (second compound 1 µM, first compound 1 µM); 50.8% (second compound 1 µM, first compound 3.16 µM); 44.5% (second compound 1 µM, first compound 10 µM). The viability, T/C is 94.1% (second compound 3.16 µM, first compound 0.0316 µM); 98.5% (second compound 3.16 µM, first compound 0.1 µM); 88.6% (second compound 3.16 µM, first compound 0.316 µM); 73.3% (second compound 3.16 µM, first compound 1 µM); 51.3% (second compound 3.16 µM, first compound 3.16 µM); 42.5% (second compound 3.16 µM, first compound 10 µM). In addition, the viability, T/C (second compound 10 µM, first compound 0.0316 µM) is 104%; the viability, T/C (second compound 10 µM, first compound 0.1 µM) is 96.3%; the viability, T/C (second compound 10 µM, first compound 0.316 µM) is 89.7%; the viability, T/C (second compound 10 µM, first compound 1 µM) is 75.7%; the viability, T/C (second compound 10 µM, first compound 3.16 µM) was 58.1%; the viability, T/C (second compound 10 µM, first compound 10 µM) is 49.5%.

For the compound `CCc1c2c(nc3ccc(O)cc13)-c1cc3c(c(=O)n1C2)COC(=O)[C@]3(O)CC` + NC1CCC(NC2CC2c2ccccc2)CC1, the IC50 by setting is: under setting [1], less than 0.000949 µM; under setting [2], less than 0.000949 µM; under setting [3], less than 0.000949 µM; under setting [4], less than 0.000949 µM; under setting [5], less than 0.000949 µM. The viability, T/C reads like this: (second compound 0.1 µM, first compound 0.000949 µM) 34.6%; (second compound 0.1 µM, first compound 0.003 µM) 27.8%; under setting [6], 24.9%; under setting [7], 24.2%; under setting [8], 5.01%; under setting [9], 2.12%. Also, the viability, T/C by setting is: (second compound 0.316 µM, first compound 0.000949 µM) 35.5%; (second compound 0.316 µM, first compound 0.003 µM) 28.4%; under setting [10], 25%; under setting [11], 22.8%; under setting [12], 3.48%; under setting [13], 0.41%. The viability, T/C by setting is: (second compound 1 µM, first compound 0.000949 µM) 36.2%; (second compound 1 µM, first compound 0.003 µM) 24.4%; under setting [14], 26.4%; under setting [15], 23.7%; under setting [16], 4.59%; under setting [17], 0.62%. Besides, the viability, T/C is 31.6% (second compound 3.16 µM, first compound 0.000949 µM); 25.7% (second compound 3.16 µM, first compound 0.003 µM); 26.7% under setting [18]; 23.6% under setting [19]; 5.29% under setting [20]; 1.43% under setting [21]. Moreover, the viability, T/C (second compound 10 µM, first compound 0.000949 µM) is 30.6%; the viability, T/C (second compound 10 µM, first compound 0.003 µM) was 25.7%; the viability, T/C under setting [22] is 25.2%; the viability, T/C under setting [23] is 25.6%; the viability, T/C under setting [24] is 3.82%; the viability, T/C under setting [25] was 0.29%.

For the compound `O=C(C=Cn1cnc(-c2cc(C(F)(F)F)cc(C(F)(F)F)c2)n1)NNc1cnccn1`, the viability, T/C was 87.2% and 64.4% (compound 0.00316 µM); 56.7% and 27.2% (compound 0.01 µM); 35.6% and 23.6% (compound 0.0316 µM); 31.5% and 16.4% (compound 0.1 µM); 28.4% and 14.6% (compound 0.316 µM); 23.4% and 14.3% (compound 1 µM). In addition, the IC50 (curve of compound) was 0.0146 µM and 0.00502 µM.

In the case of `Cn1ncnc1C1c2n[nH]c(=O)c3cc(F)cc(c23)NC1c1ccc(F)cc1` (stereo not drawn), the viability, T/C was 104% and 89.5% (compound 0.000316 µM); 104% and 89.1% (compound 0.001 µM); 105% and 70.6% (compound 0.00316 µM); 75.7% and 48.9% (compound 0.01 µM); 64.4% and 38.5% (compound 0.0316 µM); 54.2% and 38% (compound 0.1 µM).

Values taken from PubChem BioAssay AID1918945 (Molecular Pharmacology Branch, DTP, NCI, 2023).
